Tests used:
Format in all cases: cell-based
Mycobacterium abscessus [1] = assay: Antimicrobial susceptibility of M. abscessus isolates, CLSI broth microdilution (MIC100); conditions: for MIC: Mycobacteroides abscessus
Procedure: (§1) Mycobacterium absessus complex (MAC) was isolated from three participating patients. The susceptibility of these isolates, plus the MAC type strain M. abscessus DSMZ44196 to the antimicrobial effects of cysteamine alone and cysteamine combined with antibiotics employed in MAC eradication strategies, (amikacin, azithromycin and meropenem) was assessed by CLSI broth microdilution procedure [CLSI, 2012] and checkerboard assay respectively.

[2] = test system: polymicrobial load in CF sputum; assay: Effect of cysteamine and antibiotics on CF sputum microbial burden: single exposure; conditions: overall over 4 and 24 h exposure; for reduction of polymicrobial load: cysteamine 1 mg/ml
Procedure: Sputum samples were processed for antimicrobial activity within 4 h of collection. To assess the antimicrobial impact of cysteamine alone and cysteamine in conjunction with antibiotics commonly used to treat infective exacerbations of CF lung disease, 0.2 ml of each sputum sample sputum was diluted ten fold in sterile phosphate buffered saline (PBS) and vortexed. Aliquots (0.2 ml) of the homogenised diluted sample were exposed to cysteamine only (1 mg/ml), [ ] antibiotic (tobramycin [0.1 mg/ml] or ciprofloxacin, [0.1 mg/ml] only, cysteamine plus antibiotic or vehicle (PBS) only, for 4 and 24 h at 37° C. Sputum samples were then serially diluted 10-fold (1×10^−1 to 1×10^−8) and spread-plated on non-selective nutrient agar plates. Cultures were incubated at 37° C. and cfu/ml of bacteria quantified at 48 h.
FEV1 was expressed as a percentage of predicted using GLI 2012 reference equations. Sputum microbial load expressed as colony forming units approximated to a log-normal distribution and was therefore logarithmically transformed to base 10. Microbial load after incubation with cysteamine, tobramycin, ciprofloxacin after 4 and 24 hours was modelled using two way repeated measures ANOVA with post hoc testing using Bonferroni adjustment. Analyses were performed using IBM SPSS Statistics for Windows, v22.0 (Armonk, N.Y.).

Mycobacterium abscessus [3] = assay: Checkerboard assay of cysteamine combined with antibiotics, fractional inhibitory concentration index
Procedure: The Fractional Inhibitory Concentration (FIC) corresponds to an interaction coefficient indicating whether the combination of antimicrobial agents is synergistic, additive, antagonist or neutral. The FIC is determined by comparing the activity of an agent in combination (MIC of agent A+agent B) with the activity of the agent alone (MIC of agent A or agent B) as follow (Singh et al., 2000):
FIC=MICA[combition]/MICA[alone]+MICB[combination]/MICB[alone]
Additive combinations of two antimicrobial agents are indicated by a FIC index of 1, whereas a FIC index <1 indicates synergistic combinations. Neutral combinations would give a FIC between 1 and 4, a FIC index higher than 4 indicates antagonist effects between the two antimicrobial agents.
as §1

[4] = DSM44196, strain DSM44196 (type)
[5] = nine samples, ciprofloxacin 0.1 mg/ml
[6] = 23 samples, tobramycin 0.1 mg/ml, mean (95% CI)

| MIC (Mycobacterium abscessus [1]; [4]) | MIC (Mycobacterium abscessus [1]; strain MR27419N (clinical)) | MIC (Mycobacterium abscessus [1]; strain MR313292 (clinical)) | MIC (Mycobacterium abscessus [1]; strain MR313367D (clinical)) | MIC range (Mycobacterium abscessus [1]; M. abscessus isolated from three study subjects) | SMILES | reduction of polymicrobial load [2, 5] | reduction of polymicrobial load [2, 6] | further reduction of polymicrobial load compared with tobramycin ([2]; 23 samples) | further reduction of polymicrobial load compared with ciprofloxacin ([2]; nine samples) | effect of cysteamine on the impact of amikacin (by FICI) (Mycobacterium abscessus [3]; clinical and type strains) | effect of cysteamine on the impact of azithromycin (by FICI) (Mycobacterium abscessus [3]; clinical and type strains) | effect of cysteamine on meropenem sensitivity (Mycobacterium abscessus [3]; clinical isolates and type strain) |
| --- | --- | --- | --- | --- | --- | --- | --- | --- | --- | --- | --- | --- |
| 4 to 8 µg/mL | 16 µg/mL | 4 µg/mL | 16 µg/mL | – | NCC[C@H](O)C(=O)N[C@@H]1C[C@H](N)[C@@H](O[C@H]2O[C@H](CN)[C@@H](O)[C@H](O)[C@H]2O)[C@H](O)[C@H]1O[C@H]1O[C@H](CO)[C@@H](O)[C@H](N)[C@H]1O [Amikacin] | – | – | – | – | – | – | – |
| 1 to 2 µg/mL | 1 µg/mL | 8 µg/mL | 1 µg/mL | – | CC[C@H]1OC(=O)[C@H](C)[C@@H](O[C@H]2C[C@@](C)(OC)[C@@H](O)[C@H](C)O2)[C@H](C)[C@@H](O[C@@H]2O[C@H](C)C[C@H](N(C)C)[C@H]2O)[C@](C)(O)C[C@@H](C)CN(C)[C@H](C)[C@@H](O)[C@]1(C)O [Azithromycin] | – | – | – | – | – | – | – |
| – | – | – | – | – | O=C(O)c1cn(C2CC2)c2cc(N3CCNCC3)c(F)cc2c1=O [Ciprofloxacin] | 0.84 log10 units | – | – | – | – | – | – |
| 62.5 to 125 µg/mL | 125 µg/mL | 125 to 250 µg/mL | 62.5 to 125 µg/mL | 62.5 to 250 µg/mL | NCCS [Cysteamine, cysteamine] | 2.76 log10 units | 3.18 (2.30-4.07) log10 units | 1.76 log10 units | 1.92 log10 units | potentiated the impact of amikacin in both clinical and type strains | azithromycin in all but one clinical strain | showing some concentration-specific antagonism |
| 64 µg/mL | 64 µg/mL | 16 to 64 µg/mL | 16 to 64 µg/mL | – | C[C@@H](O)[C@H]1C(=O)N2C(C(=O)O)=C(S[C@@H]3CN[C@H](C(=O)N(C)C)C3)[C@H](C)[C@H]12 [Meropenem] | – | – | – | – | – | – | – |
| – | – | – | – | – | NC[C@H]1O[C@H](O[C@H]2[C@H](O)[C@@H](O[C@H]3O[C@H](CO)[C@@H](O)[C@H](N)[C@H]3O)[C@H](N)C[C@@H]2N)[C@H](N)C[C@@H]1O [Tobramycin] | – | 1.42 (95% CI 0.92-1.92) log10 units | – | – | – | – | – |

Source: patent US20180185305A1, “An Amino Thiol for Use in the Treatment of an Infection Caused by the Bacterium Mycobacterium Spp” (NOVABIOTICS LIMITED, priority 2015, published 2018)
